Assays:
Assay type in all cases: cell-based
[1] = biological target: T1, human TLR8 (Homo sapiens, UniProt Q9NR97); test: TLR8 inhibition reporter assay (HEK-Blue cells, SEAP reporter, R848 stimulation); conditions: HEK-Blue cells overexpressing human TLR8, SEAP reporter, R848 15.9 μM
T1 construct: host or cells: HEK-Blue cells
T1 sequence (Q9NR97 27-1041): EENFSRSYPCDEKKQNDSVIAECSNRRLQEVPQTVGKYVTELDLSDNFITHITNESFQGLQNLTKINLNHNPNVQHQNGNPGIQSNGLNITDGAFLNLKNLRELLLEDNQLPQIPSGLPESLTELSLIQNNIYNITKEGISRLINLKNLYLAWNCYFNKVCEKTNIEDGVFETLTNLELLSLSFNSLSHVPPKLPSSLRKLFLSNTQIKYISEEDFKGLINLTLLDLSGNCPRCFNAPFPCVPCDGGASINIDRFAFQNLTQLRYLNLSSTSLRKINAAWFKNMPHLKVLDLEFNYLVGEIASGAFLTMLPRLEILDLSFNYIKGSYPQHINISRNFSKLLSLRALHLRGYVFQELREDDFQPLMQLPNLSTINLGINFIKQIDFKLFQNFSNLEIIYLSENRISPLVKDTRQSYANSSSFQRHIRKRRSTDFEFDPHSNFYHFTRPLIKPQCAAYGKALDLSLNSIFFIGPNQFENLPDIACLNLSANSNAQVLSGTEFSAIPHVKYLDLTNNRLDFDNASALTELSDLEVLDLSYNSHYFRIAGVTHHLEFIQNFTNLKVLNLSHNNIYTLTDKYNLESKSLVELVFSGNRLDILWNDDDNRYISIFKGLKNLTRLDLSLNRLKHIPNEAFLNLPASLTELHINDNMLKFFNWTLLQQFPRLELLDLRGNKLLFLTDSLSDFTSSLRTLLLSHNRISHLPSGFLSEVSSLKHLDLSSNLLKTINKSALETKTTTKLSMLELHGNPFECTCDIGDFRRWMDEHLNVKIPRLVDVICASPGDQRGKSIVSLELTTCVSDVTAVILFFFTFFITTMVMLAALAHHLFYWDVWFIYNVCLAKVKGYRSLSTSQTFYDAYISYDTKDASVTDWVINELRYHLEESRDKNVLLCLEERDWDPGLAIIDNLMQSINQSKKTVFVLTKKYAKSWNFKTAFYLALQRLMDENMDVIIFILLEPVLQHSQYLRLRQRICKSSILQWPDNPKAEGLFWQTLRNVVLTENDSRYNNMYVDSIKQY
Experimental: (§1) TLR7/8/9 Inhibition Reporter Assays
(§2) HEK-Blue™-cells (Invivogen) overexpressing human TLR7, TLR8 or TLR9 receptors were used for screening inhibitors of these receptors using an inducible SEAP (secreted embryonic alkaline phosphatase) reporter gene under the control of the IFN-β minimal promoter fused to five NF-κB and AP-1-binding sites. Briefly, cells are seeded into Greiner 384 well plates (15000 cells per well for TLR7, 20,000 for TLR8 and 25,000 for TLR9) and then treated with test compounds in DMSO to yield a final dose response concentration range of 0.05 nM-50 μM. After a 30 minute compound pre-treatment at room temperature, the cells are then stimulated with a TLR7 ligand (gardiquimod at a final concentration of 7.5 μM), TLR8 ligand (R848 at a final concentration of 15.9 μM) or TLR9 ligand (ODN2006 at a final concentration of 5 nM) to activate NF-κB and AP-1 which induce the production of SLA After a 22 hour incubation at 37° C., […], SEAP levels are determined with the addition of HEK-Blue™ Detection reagent (Invivogen), a cell culture medium that allows for detection of SLAP, according to manufacturer's specifications. The percent inhibition is determined as the % reduction in the HEK-Blue signal present in wells treated with agonist plus DMSO alone compared to wells treated with a known inhibitor.

[2] = biological target: T2, human TLR9 (Homo sapiens, UniProt Q9NR96); test: TLR9 inhibition reporter assay (HEK-Blue cells, SEAP reporter, ODN2006 stimulation); conditions: HEK-Blue cells overexpressing human TLR9, SEAP reporter, ODN2006 5 nM
T2 construct: host or cells: HEK-Blue cells
T2 sequence (Q9NR96 26-1032): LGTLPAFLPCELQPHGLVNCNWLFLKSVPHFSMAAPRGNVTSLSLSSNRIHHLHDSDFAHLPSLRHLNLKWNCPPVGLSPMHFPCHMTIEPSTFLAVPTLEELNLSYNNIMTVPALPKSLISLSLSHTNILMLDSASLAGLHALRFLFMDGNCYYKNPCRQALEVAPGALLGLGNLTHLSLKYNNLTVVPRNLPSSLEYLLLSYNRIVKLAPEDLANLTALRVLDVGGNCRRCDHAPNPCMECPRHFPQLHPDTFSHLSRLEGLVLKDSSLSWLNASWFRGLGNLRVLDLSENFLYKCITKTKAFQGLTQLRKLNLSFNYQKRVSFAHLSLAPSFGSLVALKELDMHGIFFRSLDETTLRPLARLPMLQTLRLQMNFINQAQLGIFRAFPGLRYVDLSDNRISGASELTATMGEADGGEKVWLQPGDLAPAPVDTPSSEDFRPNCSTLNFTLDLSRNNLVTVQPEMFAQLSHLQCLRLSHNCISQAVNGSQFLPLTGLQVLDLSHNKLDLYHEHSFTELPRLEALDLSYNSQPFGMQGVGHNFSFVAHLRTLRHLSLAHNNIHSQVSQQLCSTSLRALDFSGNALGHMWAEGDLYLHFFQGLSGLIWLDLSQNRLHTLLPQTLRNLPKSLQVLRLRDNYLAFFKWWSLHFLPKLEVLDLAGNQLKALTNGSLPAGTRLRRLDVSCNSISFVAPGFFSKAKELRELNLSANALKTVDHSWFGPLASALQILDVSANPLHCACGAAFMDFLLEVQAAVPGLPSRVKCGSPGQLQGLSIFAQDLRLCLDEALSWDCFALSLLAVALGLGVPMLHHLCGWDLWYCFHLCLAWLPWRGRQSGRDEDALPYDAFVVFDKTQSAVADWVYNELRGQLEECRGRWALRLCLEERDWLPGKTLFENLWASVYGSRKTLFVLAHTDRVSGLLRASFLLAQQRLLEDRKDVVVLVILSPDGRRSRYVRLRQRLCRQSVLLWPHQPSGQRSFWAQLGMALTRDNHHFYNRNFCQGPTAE
Experimental: as §1, §2

[3] = biological target: T3, human TLR7 (Homo sapiens, UniProt Q9NYK1); test: TLR7 inhibition reporter assay (HEK-Blue cells, SEAP reporter, gardiquimod stimulation); conditions: HEK-Blue cells overexpressing human TLR7, SEAP reporter, gardiquimod 7.5 μM
T3 construct: host or cells: HEK-Blue cells
T3 sequence (Q9NYK1 27-1049): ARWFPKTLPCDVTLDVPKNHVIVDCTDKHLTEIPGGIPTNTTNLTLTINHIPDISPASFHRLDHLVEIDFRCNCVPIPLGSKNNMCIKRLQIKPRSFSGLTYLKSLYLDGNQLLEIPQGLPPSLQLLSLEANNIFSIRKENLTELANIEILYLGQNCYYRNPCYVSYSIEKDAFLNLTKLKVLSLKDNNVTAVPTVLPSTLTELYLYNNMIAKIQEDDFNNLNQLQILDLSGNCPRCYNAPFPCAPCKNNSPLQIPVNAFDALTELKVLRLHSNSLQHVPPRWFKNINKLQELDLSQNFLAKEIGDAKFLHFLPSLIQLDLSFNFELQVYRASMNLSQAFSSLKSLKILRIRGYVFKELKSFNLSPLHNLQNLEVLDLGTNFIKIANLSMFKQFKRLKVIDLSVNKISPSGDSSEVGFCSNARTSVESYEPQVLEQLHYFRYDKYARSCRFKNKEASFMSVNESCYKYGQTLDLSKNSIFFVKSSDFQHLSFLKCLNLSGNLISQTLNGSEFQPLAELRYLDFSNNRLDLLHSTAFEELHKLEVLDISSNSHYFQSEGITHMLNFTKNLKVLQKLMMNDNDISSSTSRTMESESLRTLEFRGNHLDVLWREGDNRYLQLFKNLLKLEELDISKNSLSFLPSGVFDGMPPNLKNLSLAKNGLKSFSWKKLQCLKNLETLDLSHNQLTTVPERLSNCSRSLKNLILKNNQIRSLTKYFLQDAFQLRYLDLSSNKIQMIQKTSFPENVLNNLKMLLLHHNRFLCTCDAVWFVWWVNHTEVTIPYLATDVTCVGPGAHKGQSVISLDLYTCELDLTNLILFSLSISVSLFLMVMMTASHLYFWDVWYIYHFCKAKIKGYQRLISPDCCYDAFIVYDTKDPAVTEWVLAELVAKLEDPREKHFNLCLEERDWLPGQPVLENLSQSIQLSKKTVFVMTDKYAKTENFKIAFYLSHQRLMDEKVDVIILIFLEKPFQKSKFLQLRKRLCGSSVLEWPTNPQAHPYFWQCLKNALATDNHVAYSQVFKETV
Experimental: as §1, §2

## Cc1cc(-c2[nH]nc(C(=O)NC3CCCNC3)c2C(C)C)cn2ncnc12 (stereo not drawn) [Example 67]
[1]
  IC50: 12.9 nM
[2]
  IC50: 2250 nM
[3]
  IC50: 12.6 nM

## Cc1cc(-c2[nH]nc(C(=O)N[C@@H]3CCCN(C(C)C)C3)c2C(C)C)cn2ncnc12 [Example 161]
[1]
  IC50: 14.7 nM
[2]
  IC50: 17000 nM
[3]
  IC50: 18.1 nM

## COc1cc(-c2[nH]nc(-c3ccc4c(c3)CCNC4)c2C(C)C)cn2ncnc12 [Example 234]
[1]
  IC50: 59.8 nM
[2]
  IC50: > 50000 nM
[3]
  IC50: 15.1 nM

## Cc1cc(-c2[nH]nc(C(=O)N[C@H]3CCCNC3)c2C(C)C)cn2ncnc12 [Example 54]
[1]
  IC50: 3.74 nM
[2]
  IC50: 6670 nM
[3]
  IC50: 1.1 nM

## Cc1cc(-c2[nH]nc(-c3ccc(C4CCNCC4)cn3)c2C(C)C)cn2ncnc12 [Example 342]
[1]
  IC50: 12.6 nM
[2]
  IC50: > 50000 nM
[3]
  IC50: 19.6 nM

## COc1cc(-c2[nH]nc(C(=O)NC3CCN(C(C)C)CC3)c2C(C)C)cn2ncnc12 [Example 12]
[1]
  IC50: 0.86 nM
[2]
  IC50: 2150 nM
[3]
  IC50: 1.59 nM

## Cc1cc(-c2[nH]nc(C(=O)N[C@H]3CC[C@@H](NCCCC(F)(F)F)CC3)c2C(C)C)cn2ncnc12 [Example 88]
[1]
  IC50: 1.84 nM
[2]
  IC50: 4450 nM
[3]
  IC50: 0.81 nM

## Cc1cc(-c2[nH]nc(-c3ccc(N4CCN(CC(C)(C)C)CC4)cc3)c2C(C)C)cn2ncnc12 [Example 408]
[1]
  IC50: 168 nM
[2]
  IC50: > 50000 nM
[3]
  IC50: 47.4 nM

## Cc1cc(-c2[nH]nc(C(=O)N[C@H]3CC[C@@H](NC4CCOCC4)CC3)c2C(C)C)cn2ncnc12 [Example 98]
[1]
  IC50: 1.37 nM
[2]
  IC50: 2980 nM
[3]
  IC50: 0.12 nM

## Cc1cc(-c2[nH]nc(C(=O)NC3CCN(Cc4ncn(C)n4)CC3)c2C(C)C)cn2ncnc12 [Example 158]
[1]
  IC50: 31 nM
[2]
  IC50: 14300 nM
[3]
  IC50: 8.95 nM

## Cc1cc(-c2[nH]nc(C3CCC(NC4CCN(C(C)C)CC4)CC3)c2C(C)C)cn2ncnc12 (single isomer, unassigned) [Example 289]
[1]
  IC50: 0.97 nM
[2]
  IC50: 19700 nM
[3]
  IC50: 5.19 nM

## COc1cc(-c2[nH]nc(C(=O)NC3CCN(C4CCN(C(C)C)CC4)CC3)c2CC(F)(F)F)cn2ncnc12 [Example 199]
[1]
  IC50: 2.19 nM
[2]
  IC50: 2950 nM
[3]
  IC50: 4.98 nM

## Cc1cc(-c2[nH]nc(C(=O)NCC3CNC3)c2C(C)C)cn2ncnc12 [Example 49]
[1]
  IC50: 0.48 nM
[2]
  IC50: 9220 nM
[3]
  IC50: 0.97 nM

## Cc1cc(-c2[nH]nc(C(=O)N3CCC(CN)CC3)c2C(C)C)cn2ncnc12 [Example 61]
[1]
  IC50: 5.33 nM
[2]
  IC50: > 50000 nM
[3]
  IC50: 22.7 nM

## COc1cc(-c2[nH]nc(C(=O)NCC3CCNCC3)c2C(C)C)cn2ncnc12 [Example 62]
[1]
  IC50: 22.3 nM
[2]
  IC50: > 50000 nM
[3]
  IC50: 88.6 nM

## COc1cc(-c2[nH]nc(-c3ccc(C4CCNCC4)cc3)c2C(C)C)cn2ncnc12 [compound 308]
[1]
  IC50: 0.09 nM
[2]
  IC50: 15800 nM
[3]
  IC50: 0.18 nM

## CNC(=O)CN1CCC(NC(=O)c2n[nH]c(-c3cc(OC)c4ncnn4c3)c2CC(F)(F)F)CC1 [Example 205, 5-(8-methoxy-[1,2,4]triazolo[1,5-a]pyridin-6-yl)-N-(1-(2-(methylamino)-2-oxoethyl)piperidin-4-yl)-4-(2,2,2-trifluoroethyl)-1H-pyrazole-3-carboxamide]
[1]
  IC50: 2.33 nM
[2]
  IC50: 21500 nM
[3]
  IC50: 6.66 nM

## Cc1cc(-c2[nH]nc(C3CCC(N(C)CC(=O)N(C)C)CC3)c2C(C)C)cn2ncnc12 (stereo not drawn) [Example 298, 2-((4-(4-isopropyl-5-(8-methyl-[1,2,4]triazolo[1,5-a]pyridin-6-yl)-1H-pyrazol-3-yl)cyclohexyl)(methyl)amino)-N,N-dimethylacetamide]
[1]
  IC50: 0.43 nM
[2]
  IC50: 7410 nM
[3]
  IC50: 1.56 nM

## CCN1CCC(c2cnc(-c3n[nH]c(-c4cc(OC)c5ncnn5c4)c3C(C)C)cn2)CC1 [Example 382]
[1]
  IC50: 2.33 nM
[2]
  IC50: 9860 nM
[3]
  IC50: 2.32 nM

## Cc1cc(-c2[nH]nc(-c3ccc(C4CCN(CC(C)(C)C)CC4)cc3)c2C(C)C)cn2ncnc12 [Example 317]
[1]
  IC50: 4.22 nM
[2]
  IC50: 44400 nM
[3]
  IC50: 9.47 nM

## Cc1cc(-c2[nH]nc(C(=O)NC3CCN(C(C)C(C)C)CC3)c2C(C)C)cn2ncnc12 (stereo not drawn) [Example 125]
[1]
  IC50: 25.9 nM
[2]
  IC50: 5400 nM
[3]
  IC50: 5.8 nM

Source: US20230117470A1, “SUBSTITUTED PYRAZOLE COMPOUNDS AS TOLL RECEPTOR INHIBITORS” (BRISTOL-MYERS SQUIBB COMPANY, priority 2019, published 2023)
